Results reported in patent US20260042764A1, “COMPOSITIONS AND METHODS FOR INHIBITION OF KRAS” (TheRas, Inc., priority 2022, published 2026).

Legend:
[1] = molecular target: T1, Avi-KRAS G12D (1-169) GppNHp/RAF1 RBD-3xFLAG (52-151) (Homo sapiens, UniProt P01116, G12D); test: Raf1-KRAS G12D-GppNHP disruption HTRF assay (Biological Example 1); type: binding
T1 construct: Avi-KRAS G12D (1-169)
Outline: (§1)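 Read-out is HTRF signal of the KRAS–RAF1 RBD complex, reported as percentage of activity relative to DMSO (100%). Protein mix and detection reagents each incubated 1 h at room temperature with 700 rpm shaking. Buffer: 50 mM Tris pH 7.5, 100 mM NaCl, 5 mM MgCl2, 0.1% BSA, 0.01% Tween, 10% DMSO.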

[2] = molecular target: T2, Avi-KRAS G12R (1-169) GppNHp/RAF1 RBD-3xFLAG (52-151) (Homo sapiens, UniProt P01116, G12R); test: Raf1-KRAS G12R-GppNHP disruption HTRF assay (Biological Example 1); type: binding
T2 construct: Avi-KRAS G12R (1-169)
T2 sequence (P01116 1-169 isoform P01116-2 G12R): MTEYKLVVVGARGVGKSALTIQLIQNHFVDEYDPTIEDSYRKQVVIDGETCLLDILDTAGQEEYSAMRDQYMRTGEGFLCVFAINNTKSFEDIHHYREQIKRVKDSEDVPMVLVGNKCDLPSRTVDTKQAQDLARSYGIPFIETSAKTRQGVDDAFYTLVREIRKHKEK
Outline: as §1

[3] = molecular target: T3, Avi-KRAS G12V (1-169) GppNHp/RAF1 RBD-3xFLAG (52-151) (Homo sapiens, UniProt P01116, G12V); test: Raf1-KRAS G12V-GppNHP disruption HTRF assay (Biological Example 1); type: binding
T3 construct: Avi-KRAS G12V (1-169)
T3 sequence (P01116 1-169 isoform P01116-2 G12V): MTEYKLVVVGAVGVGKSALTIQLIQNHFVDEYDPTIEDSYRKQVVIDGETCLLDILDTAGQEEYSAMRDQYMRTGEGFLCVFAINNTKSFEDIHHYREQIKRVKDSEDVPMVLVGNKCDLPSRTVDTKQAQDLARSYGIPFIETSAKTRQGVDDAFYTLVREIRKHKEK
Outline: as §1

[4] = molecular target: T4, Avi-KRAS WT (1-169) GppNHp/RAF1 RBD-3xFLAG (52-151) (Homo sapiens, UniProt P01116); test: Raf1-KRAS WT-GppNHP disruption HTRF assay (Biological Example 1); type: binding
T4 construct: Avi-KRAS WT (1-169)
T4 sequence (P01116 1-169 isoform P01116-2): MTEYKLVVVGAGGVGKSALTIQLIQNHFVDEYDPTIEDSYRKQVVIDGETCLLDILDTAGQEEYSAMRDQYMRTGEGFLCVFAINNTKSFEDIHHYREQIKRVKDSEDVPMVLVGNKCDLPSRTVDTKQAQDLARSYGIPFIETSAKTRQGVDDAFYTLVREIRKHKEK
Outline: as §1

GP2d cells (KRAS G12D) = test: Cell-based pERK HTRF assay in GP2d cell (Biological Example 2); conditions: GP2d, GP2d (KRAS G12D) cells, pERK HTRF
Outline: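 Cells grown in DMEM with 10% FBS were exposed to compound for 60 min at 0.25% DMSO, using a 9-point half-log series starting at 1 μM or 100 nM. Lysates were then mixed with d2 and Eu cryptate antibodies for 4–24 h at room temperature, and pERK was read by HTRF.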

SW620 cells (KRAS G12V) = test: Cell-based pERK HTRF assay in SW620 cell (Biological Example 4); conditions: Homo sapiens, SW-620, SW620 (KRAS G12V) cells, pERK HTRF
Outline: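 SW620 (KRAS G12V) cells seeded at 3×10^4/well in RPMI, 10% FBS, then treated next day for 4 h with a 9-point half-log series from 1 μM top (0.25% DMSO). Lysates analyzed for pERK by HTRF (Eu cryptate/d2 antibodies, 4–24 h at room temperature), excitation 320 nm, emission 615 nm.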

[5] = KRAS G12D, GppNHp-loaded, class symbols
[6] = KRAS G12R, GppNHp-loaded, class symbols
[7] = KRAS G12V, GppNHp-loaded, class symbols
[8] = KRAS WT, GppNHp-loaded, class symbols

T1 sequence (P01116 1-169 isoform P01116-2 G12D): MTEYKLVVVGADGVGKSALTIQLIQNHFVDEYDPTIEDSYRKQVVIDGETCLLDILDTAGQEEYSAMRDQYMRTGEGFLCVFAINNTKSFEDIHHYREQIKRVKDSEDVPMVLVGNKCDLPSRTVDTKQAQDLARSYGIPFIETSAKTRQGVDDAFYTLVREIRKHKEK

IC50 ([1]; KRAS G12D-GppNHp/RAF1 RBD HTRF) [nM] | IC50 ([2]; KRAS G12R-GppNHp/RAF1 RBD HTRF) [nM] | IC50 ([3]; KRAS G12V-GppNHp/RAF1 RBD HTRF) [nM] | IC50 ([4]; KRAS WT-GppNHp/RAF1 RBD HTRF) [nM] | IC50 (GP2d cells (KRAS G12D)) [nM] | IC50 (SW620 cells (KRAS G12V)) [nM] | IC50 [1, 5] [nM] | IC50 [2, 6] [nM] | IC50 [3, 7] [nM] | IC50 [4, 8] [nM] | IC50 (GP2d cells (KRAS G12D); class symbols) [nM] | IC50 (SW620 cells (KRAS G12V); class symbols) [nM] | IC50 ([1]; KRAS G12D, GppNHp-loaded, Table 11) [nM] | IC50 ([2]; KRAS G12R, GppNHp-loaded, Table 11) [nM] | IC50 ([3]; KRAS G12V, GppNHp-loaded, Table 11) [nM] | IC50 ([4]; KRAS WT, GppNHp-loaded, Table 11) [nM] | Compound
< 100 | < 100 | 100 to 1000 | 100 to 1000 | < 100 | < 100 | – | – | – | – | – | – | – | – | – | – | CCN(c1nc(OC[C@@]23CCCN2C[C@H](F)C3)nc2c(F)c(-c3ccc(F)c4sc(N)c(C#N)c34)c(C(F)(F)F)cc12)[C@H]1CCN(C(=O)OC(C)C)C1 (atropisomer, axis not shown) [Compound 556]
100 to 1000 | 100 to 1000 | 100 to 1000 | 100 to 1000 | < 100 | 100 to 1000 | – | – | – | – | – | – | – | – | – | – | N#Cc1c(N)sc2c(F)ccc(-c3c(C(F)(F)F)cc4c(N5CCn6nc(C(=O)N7CC[C@H](O)C7)cc6C5)nc(OC[C@@]56CCCN5C[C@H](F)C6)nc4c3F)c12 [Compound 500]
– | – | – | – | – | – | < 100 | < 100 | 100 to 1000 | < 100 | < 100 | < 100 | – | – | – | – | CCN(c1nc(OC[C@@]23CCCN2C[C@H](F)C3)nc2c(F)c(-c3ccc(F)c4sc(N)c(C#N)c34)c(C(F)(F)F)cc12)[C@H]1CC(=O)N(CCF)C1 (atropisomer, axis not shown) [Compound 635]
– | – | – | – | > 1000 | > 1000 | – | – | – | – | – | – | > 10000 | > 10000 | > 10000 | > 10000 | CC(=O)N1CC[C@H](N(C)c2nc(OC[C@@H]3C[C@@H](F)CN3C)nc3c(F)c(-c4ccc(F)c5sc(N)c(C#N)c45)c(C(F)(F)F)cc23)[C@@H]1C [Compound 226]
– | – | – | – | – | – | < 100 | < 100 | < 100 | < 100 | < 100 | < 100 | – | – | – | – | CCN(c1nc(OC[C@@]23CCCN2C[C@H](F)C3)nc2c(F)c(-c3ccc(F)c4sc(N)c(C#N)c34)c(C(F)(F)F)cc12)[C@H]1CCN(C(=O)[C@@H]2C[C@H]2F)C1 (atropisomer, axis not shown) [Compound 768]
– | – | – | – | – | – | 100 to 1000 | 100 to 1000 | 100 to 1000 | 100 to 1000 | < 100 | < 100 | – | – | – | – | CCN(c1nc(OC[C@@]23CCCN2C[C@H](F)C3)nc2c(F)c(-c3ccc(F)c4sc(N)c(C#N)c34)c(C(F)(F)F)cc12)[C@@H]1C[C@H](C)N(C(=O)COC)C1 (atropisomer, axis not shown) [Compound 589]
– | – | – | – | – | – | < 100 | 100 to 1000 | 100 to 1000 | 100 to 1000 | < 100 | < 100 | – | – | – | – | CCN1CC[C@H](N(CC)c2nc(OC[C@@]34CCCN3C[C@H](F)C4)nc3c(F)c(-c4ccc(F)c5sc(N)c(C#N)c45)c(C(F)(F)F)cc23)C1=O (atropisomer, axis not shown) [Compound 694]
< 100 | 100 to 1000 | 100 to 1000 | < 100 | < 100 | < 100 | – | – | – | – | – | – | – | – | – | – | N#Cc1c(N)sc2c(F)ccc(-c3c(C(F)(F)F)cc4c(N5CCO[C@@H](CO)C5)nc(OC[C@@]56CCCN5C[C@H](F)C6)nc4c3F)c12 [Compound 282]
1000 to 10000 | 1000 to 10000 | > 10000 | 1000 to 10000 | 100 to 1000 | < 100 | – | – | – | – | – | – | – | – | – | – | N#Cc1c(N)sc2c(F)ccc(-c3c(C(F)(F)F)cc4c(N5CCc6cn[nH]c6C5)nc(OC[C@@]56CCCN5C[C@H](F)C6)nc4c3F)c12 [Compound 354]
– | – | – | – | – | – | 100 to 1000 | 100 to 1000 | 100 to 1000 | 100 to 1000 | < 100 | < 100 | – | – | – | – | CCN(c1nc(OC[C@@]23CCCN2C[C@H](F)C3)nc2c(F)c(-c3ccc(F)c4sc(N)c(C#N)c34)c(C(F)(F)F)cc12)[C@H]1C[C@@H](C)N(C(=O)N2CC(OC)C2)C1 (atropisomer, axis not shown) [Compound 734]
– | – | – | – | – | – | < 100 | < 100 | < 100 | < 100 | < 100 | < 100 | – | – | – | – | CN(c1nc(OC[C@@]23CCCN2C[C@H](F)C3)nc2c(F)c(-c3ccc(F)c4sc(N)c(C#N)c34)c(C(F)(F)F)cc12)[C@H]1CC(=O)N(C2CC2)C1 (atropisomer, axis not shown) [Compound 616]
